Experimental data: PubChem BioAssay AID1963836 (Molecular Pharmacology Branch, DTP, NCI, 2024)

Test system: 857933-349-R-J2-PDC complex spheroid viability
Test: Anticancer human tumor 857933-349-R-J2-PDC patient-derived colon adenocarcinoma cell line growth inhibition [POLQ]
Details: for IC50: curve of first compound; for viability, T/C: stronger effect = lower value
Summary of the method: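 Three-cell-type spheroids modelling solid tumor plus stroma served as the readout system; POL inhibitors were tested individually and in combination, concentration ranges set by clinical Cmax where known.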

[1] = second compound 0.0316 µM, first compound 0.0316 µM
[2] = second compound 0.0316 µM, first compound 0.1 µM
[3] = second compound 0.0316 µM, first compound 0.316 µM
[4] = second compound 0.0316 µM, first compound 1 µM
[5] = second compound 0.1 µM, first compound 0.0316 µM
[6] = second compound 0.1 µM, first compound 0.1 µM
[7] = second compound 0.1 µM, first compound 0.316 µM
[8] = second compound 0.1 µM, first compound 1 µM
[9] = second compound 0.316 µM, first compound 0.0316 µM
[10] = second compound 0.316 µM, first compound 0.1 µM
[11] = second compound 0.316 µM, first compound 0.316 µM
[12] = second compound 0.316 µM, first compound 1 µM
[13] = second compound 1 µM, first compound 0.0316 µM
[14] = second compound 1 µM, first compound 0.1 µM
[15] = second compound 1 µM, first compound 0.316 µM
[16] = second compound 1 µM, first compound 1 µM
[17] = second compound 3.16 µM, first compound 0.0316 µM
[18] = second compound 3.16 µM, first compound 0.1 µM
[19] = second compound 3.16 µM, first compound 0.316 µM
[20] = second compound 3.16 µM, first compound 1 µM
[21] = second compound 10 µM, first compound 0.0316 µM
[22] = second compound 10 µM, first compound 0.1 µM
[23] = second compound 10 µM, first compound 0.316 µM
[24] = second compound 10 µM, first compound 1 µM
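Note: spheroids exposed to compounds for seven days before readout.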

Structure (SMILES): CCc1c2c(nc3ccc(O)cc13)-c1cc3c(c(=O)n1C2)COC(=O)[C@]3(O)CC + COC1C(OC(N)=O)C(O)C(Oc2ccc3c(O)c(NC(=O)c4ccc(O)c(CC=C(C)C)c4)c(=O)oc3c2C)OC1(C)C
- IC50 (second compound 0.0316 µM): 19.9 nM
- IC50 (second compound 0.1 µM): 19.4 nM
- IC50 (second compound 0.316 µM): 17.5 nM
- IC50 (second compound 1 µM): 12.5 nM
- IC50 (second compound 3.16 µM): 15.8 nM
- IC50 (second compound 10 µM): 9.42 nM
- viability, T/C (second compound 0.0316 µM, first compound 0.00316 µM): 84.5%
- viability, T/C (second compound 0.0316 µM, first compound 0.01 µM): 71.7%
- viability, T/C [1]: 32.1%
- viability, T/C [2]: 25.3%
- viability, T/C [3]: 17.5%
- viability, T/C [4]: 5.52%
- viability, T/C (second compound 0.1 µM, first compound 0.00316 µM): 88.3%
- viability, T/C (second compound 0.1 µM, first compound 0.01 µM): 76.1%
- viability, T/C [5]: 29.7%
- viability, T/C [6]: 20.2%
- viability, T/C [7]: 14.1%
- viability, T/C [8]: 4.89%
- viability, T/C (second compound 0.316 µM, first compound 0.00316 µM): 92.3%
- viability, T/C (second compound 0.316 µM, first compound 0.01 µM): 71.7%
- viability, T/C [9]: 26.3%
- viability, T/C [10]: 17.3%
- viability, T/C [11]: 15.2%
- viability, T/C [12]: 5.5%
- viability, T/C (second compound 1 µM, first compound 0.00316 µM): 89%
- viability, T/C (second compound 1 µM, first compound 0.01 µM): 56.6%
- viability, T/C [13]: 22.9%
- viability, T/C [14]: 16.7%
- viability, T/C [15]: 16.2%
- viability, T/C [16]: 5.68%
- viability, T/C (second compound 3.16 µM, first compound 0.00316 µM): 84.8%
- viability, T/C (second compound 3.16 µM, first compound 0.01 µM): 62.8%
- viability, T/C [17]: 29.8%
- viability, T/C [18]: 22.4%
- viability, T/C [19]: 12.5%
- viability, T/C [20]: 6.77%
- viability, T/C (second compound 10 µM, first compound 0.00316 µM): 80.6%
- viability, T/C (second compound 10 µM, first compound 0.01 µM): 42.7%
- viability, T/C [21]: 35%
- viability, T/C [22]: 16.2%
- viability, T/C [23]: 12.2%
- viability, T/C [24]: 4.37%

Structure (SMILES): O=C(c1cc(Cc2n[nH]c(=O)c3ccccc23)ccc1F)N1CCN(C(=O)C2CC2)CC1 + COC1C(OC(N)=O)C(O)C(Oc2ccc3c(O)c(NC(=O)c4ccc(O)c(CC=C(C)C)c4)c(=O)oc3c2C)OC1(C)C
- IC50 (second compound 0.0316 µM): > 10000 nM
- IC50 (second compound 0.1 µM): > 10000 nM
- IC50 (second compound 0.316 µM): > 10000 nM
- IC50 (second compound 1 µM): > 10000 nM
- IC50 (second compound 3.16 µM): > 10000 nM
- IC50 (second compound 10 µM): > 10000 nM
- viability, T/C [1]: 125%
- viability, T/C [2]: 126%
- viability, T/C [3]: 90.8%
- viability, T/C [4]: 100%
- viability, T/C (second compound 0.0316 µM, first compound 3.16 µM): 109%
- viability, T/C (second compound 0.0316 µM, first compound 10 µM): 84.1%
- viability, T/C [5]: 94%
- viability, T/C [6]: 130%
- viability, T/C [7]: 94.4%
- viability, T/C [8]: 88.2%
- viability, T/C (second compound 0.1 µM, first compound 3.16 µM): 102%
- viability, T/C (second compound 0.1 µM, first compound 10 µM): 79.3%
- viability, T/C [9]: 123%
- viability, T/C [10]: 123%
- viability, T/C [11]: 112%
- viability, T/C [12]: 115%
- viability, T/C (second compound 0.316 µM, first compound 3.16 µM): 92.9%
- viability, T/C (second compound 0.316 µM, first compound 10 µM): 97%
- viability, T/C [13]: 93.4%
- viability, T/C [14]: 103%
- viability, T/C [15]: 87.1%
- viability, T/C [16]: 91.2%
- viability, T/C (second compound 1 µM, first compound 3.16 µM): 104%
- viability, T/C (second compound 1 µM, first compound 10 µM): 104%
- viability, T/C [17]: 92.8%
- viability, T/C [18]: 96.8%
- viability, T/C [19]: 96.3%
- viability, T/C [20]: 81.6%
- viability, T/C (second compound 3.16 µM, first compound 3.16 µM): 96.1%
- viability, T/C (second compound 3.16 µM, first compound 10 µM): 86.5%
- viability, T/C [21]: 84.5%
- viability, T/C [22]: 121%
- viability, T/C [23]: 79.3%
- viability, T/C [24]: 82.7%
- viability, T/C (second compound 10 µM, first compound 3.16 µM): 120%
- viability, T/C (second compound 10 µM, first compound 10 µM): 90%
